Test results as given in patent publication US8110681B2, “Compounds for the treatment of spinal muscular atrophy and other uses” (The United States of America as represented by the …, priority 2006, dated 2012).
Where two headings read alike, the source gives them in different places.

Tested on: SMN2-linked luciferase-reporter gene construct
Assay: SMN splice reporter assay (SMN2-linked luciferase reporter, Example 10)
Type: cell-based
Conditions: for maximal fold induction: read-out: SMN Splice Reporter Assay (Example 10) Avg MaxFold Increase
Method in brief: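 Values are fold-increase in luciferase signal relative to baseline cells without compound. The cervical carcinoma line used holds a fusion of alternatively spliced SMN2 sequence and luciferase. Readable frame, and thus signal, arises only with exon 7-including splicing.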

[1] = maximum fold increase of reporter signal, average
[2] = SMN2-linked luciferase reporter, average
[3] = SMN2-linked luciferase reporter, average maximum fold increase

| Compound | maximal fold induction [1] | EC50 [2] [nM] | maximal fold induction [3] | SMN Splice Reporter Assay (Example 10) Avg MaxFold Increase [1] |
| --- | --- | --- | --- | --- |
| CC(C(=O)N1CCCCC1)c1ccc(N2Cc3ccccc3C2=O)cc1 (centres unmarked) [ALB-112078] | 1.15 |  |  |  |
| CNC(=O)C(C)c1ccc(N2Cc3ccccc3C2=O)cc1 (centres unmarked) [ALB-112079] | 1.14 |  |  |  |
| CC(C)Cc1ccc2c(c1)C(=O)N(c1ccc(C(C)C)cc1)C2 [ALB-116245] | 1.36 | 219 |  |  |
| Cc1ccc(-c2ccc3c(c2)CN(c2ccc(C(C)C(=O)OC(C)(C)C)cc2)C3=O)cc1 (centres unmarked) [ALB-111887] | 1.04 |  |  |  |
| CC(C)OCc1ccc2c(c1)C(=O)N(c1ccc(C(C)C(=O)O)cc1)C2 (centres unmarked) [ALB-114741] | 1.67 |  |  |  |
| CC(C(=O)OC(C)(C)C)c1ccc(N2Cc3ccccc3C2=O)cc1-c1ccc(Cl)cc1 (centres unmarked) [ALB-112328] | 1.04 |  |  |  |
| CC(C(=O)OC(C)(C)C)c1ccc(N2Cc3ccc(-c4cccnc4)cc3C2=O)cc1 (centres unmarked) [ALB-112473] | 1.03 | 2 |  |  |
| Cc1ccc2c(c1)C(=O)N(c1ccc(C(C)(C)C)cc1)C2 [ALB-116068] | 1.35 | 51 |  |  |
| Cc1ccc(N2Cc3ccc(OC(F)F)cc3C2=O)cc1 [ALB-119515] |  | 146 | 1.46 |  |
| COC(=O)C(C)c1ccc(N2Cc3ccccc3C2=O)cc1 (centres unmarked) [ALB-111731] | 1.43 | 174 |  |  |
| CC(C#N)c1ccc(N2Cc3ccccc3C2=O)cc1 (centres unmarked) [ALB-112330] | 1.46 | 259 |  |  |
| CCCOc1ccc2c(c1)C(=O)N(c1ccc(C(C)C(=O)O)cc1)C2 (centres unmarked) [ALB-114934] | 1.87 | 33 |  |  |
| CC(=O)Nc1ccc2c(c1)C(=O)N(c1ccc(C(C)C(=O)OC(C)(C)C)cc1)C2 (centres unmarked) [ALB-111960] | 1.24 | 6620 |  |  |
| COc1cccc2c1C(=O)N(c1ccc(C(C)C(=O)OC(C)(C)C)cc1)C2 (centres unmarked) [ALB-111955] | 1.08 | 396 |  |  |
| CCNC(=O)Nc1ccc2c(c1)C(=O)N(c1ccc(C(C)C)cc1)C2 [ALB-118414] |  | 3530 | 1.35 |  |
| CC(C(=O)O)c1ccc(N2Cc3ccc(N)cc3C2=O)cc1 (centres unmarked) [ALB-111883a] | 1.17 | 1260 |  |  |
| CC(C)c1ccc(N2Cc3c(Br)cccc3C2=O)cc1 [ALB-115811] | 1.16 |  |  |  |
| CC(C(=O)O)c1ccc(N2CC3CCCCC3C2=O)cc1 (centres unmarked) [ALB-112901] | 1.49 | 5820 |  |  |
| CCCN(C)C(=O)Nc1ccc2c(c1)C(=O)N(c1ccc(C(C)C)cc1)C2 [ALB-118898] |  |  | 1.06 |  |

| Compound | maximal fold induction [1] | EC50 [2] [nM] | maximal fold induction [3] | SMN Splice Reporter Assay (Example 10) Avg MaxFold Increase [1] |
| --- | --- | --- | --- | --- |
| CCc1ccc2c(c1)C(=O)N(c1ccc(C(C)C)cc1)C2 [ALB-115713] | 1.37 | 61 |  |  |
| CC(C(=O)OC(C)(C)C)c1ccc(N2Cc3c(Cl)cccc3C2=O)cc1 (centres unmarked) [ALB-111760] | 1.07 |  |  |  |
| CC(C(=O)OC(C)(C)C)c1ccc(N2Cc3cc(-c4cccnc4)ccc3C2=O)cc1 (centres unmarked) [ALB-111884] | 1.03 |  |  |  |
| CC(C(=O)OC(C)(C)C)c1ccc(N2Cc3ccccc3C2=O)cc1-c1ccc(Cl)c(Cl)c1 (centres unmarked) [ALB-111963] | 1.02 |  |  |  |
| CCNC(=O)C(C)c1ccc(N2Cc3ccccc3C2=O)cc1 (centres unmarked) [ALB-112073] | 1.18 |  |  |  |
| CC(C(=O)OC(C)(C)C)c1ccc(N2Cc3cc(-c4ccc(Cl)cc4)ccc3C2=O)cc1 (centres unmarked) [ALB-111886] | 1.07 |  |  |  |
| CCCCCCc1cccc2c1C(=O)N(c1ccc(C(C)C(=O)O)cc1)C2 (centres unmarked) [ALB-113495] | 1.35 | 18300 |  |  |
| CC(C(=O)O)c1ccc(N2Cc3ccccc3C2=O)cc1-c1ccc(Cl)c(Cl)c1 (centres unmarked) [ALB-111999] | 1.05 |  |  |  |
| COc1cc2c(cc1OC)C(=O)N(c1ccc(C(C)C)cc1)C2 [ALB-117672] | 1.47 | 319 |  |  |
| CC(CBr)c1ccc(N2Cc3ccccc3C2=O)cc1 (centres unmarked) [ALB-113651] | 1.44 | 209 |  |  |
| CC(C(=O)O)c1ccc(N2Cc3cc(NS(C)(=O)=O)ccc3C2=O)cc1 (centres unmarked) [ALB-113647] |  |  | 1.11 |  |
| C=Cc1ccc2c(c1)C(=O)N(c1ccc(C(C)COC)cc1)C2 (centres unmarked) [ALB-115327] | 1.43 | 76 |  |  |
| CC(CF)c1ccc(N2Cc3ccccc3C2=O)cc1 (centres unmarked) [ALB-114090] | 1.47 | 214 |  |  |
| CC(C(=O)O)c1ccc(N2Cc3cc(O)ccc3C2=O)cc1 (centres unmarked) [ALB-113560] | 1.05 |  |  |  |
| CC(C)c1cccc2c1C(=O)N(c1ccc(C(C)C(=O)O)cc1)C2 (centres unmarked) [ALB-113565] | 1.19 |  |  |  |
| CCCOc1ccc2c(c1)C(=O)N(c1ccc(C(C)C)cc1)C2 [ALB-116075] | 1.26 | 188 |  |  |
| CC(C(=O)O)c1ccc(N2Cc3ccc(-c4cccs4)cc3C2=O)cc1 (centres unmarked) [ALB-112515] | 1.62 | 494 |  |  |
| C=Cc1ccc2c(c1)C(=O)N(c1ccc(C(C)C)cc1)C2 [ALB-115714] | 1.37 | 53 |  |  |
| Cc1ccc(-c2cccc3c2CN(c2ccc(C(C)C(=O)OC(C)(C)C)cc2)C3=O)cc1 (centres unmarked) [ALB-112188] | 1.08 |  |  |  |

| Compound | maximal fold induction [1] | EC50 [2] [nM] | maximal fold induction [3] | SMN Splice Reporter Assay (Example 10) Avg MaxFold Increase [1] |
| --- | --- | --- | --- | --- |
| CC(C(=O)O)c1ccc(N2Cc3ccccc3C2=O)cc1Br (centres unmarked) [ALB-111962] | 1.08 |  |  |  |
| CCOC(=O)C(C)c1ccc(N2Cc3ccccc3C2=O)cc1 (centres unmarked) [ALB-111732] | 1.41 | 325 |  |  |
| CC(C(=O)OC(C)(C)C)c1ccc(N2Cc3ccccc3C2=O)cc1-c1cccnc1 (centres unmarked) [ALB-112173] | 1 |  |  |  |
| COCC(C)c1ccc(N2Cc3ccc(C)cc3C2=O)cc1 (centres unmarked) [ALB-115072] |  | 32 |  | 1.28 |
| CCCCCOc1ccc2c(c1)CN(c1ccc(C(C)C(=O)O)cc1)C2=O (centres unmarked) [ALB-113759] | 1.22 | 510 |  |  |
| CC(C(=O)O)c1ccc(N2Cc3c(cccc3-c3ccc(Cl)c(Cl)c3)C2=O)cc1 (centres unmarked) [ALB-112226] | 1.44 | 26200 |  |  |
| CC(C)c1ccc(N2Cc3ccc4c(c3C2=O)OCCO4)cc1 [ALB-118160] |  | 46 | 1.43 |  |
| CC(C(=O)OC(C)(C)C)c1ccc(N2Cc3ccc(-c4cncnc4)cc3C2=O)cc1 (centres unmarked) [ALB-112476] | 1.08 |  |  |  |
| COc1cccc2c1C(=O)N(c1ccc(C(C)C(=O)O)cc1)C2 (centres unmarked) [ALB-111957] | 1.23 |  |  |  |
| CC(C)c1ccc(N2Cc3ccc(CN(C)C)cc3C2=O)cc1 [ALB-116934] | 1.05 |  |  |  |
| CC(CN)c1ccc(N2Cc3ccccc3C2=O)cc1 (centres unmarked) [ALB-114604] | 1.39 | 303 |  |  |
| C=Cc1ccc2c(c1)CN(c1ccc(C(C)C(=O)O)cc1)C2=O (centres unmarked) [ALB-113390] | 1.29 | 10400 |  |  |
| CC(=O)c1ccc2c(c1)C(=O)N(c1ccc(C(C)C(=O)O)cc1)C2 (centres unmarked) [ALB-113387] | 1.18 | 50 |  |  |
| CC(C(=O)O)c1ccc(N2Cc3ccc(C#N)cc3C2=O)cc1 (centres unmarked) [ALB-112478] | 1.23 | 2040 |  |  |
| CCC(C)c1ccc2c(c1)C(=O)N(c1ccc(C(C)C(=O)O)cc1)C2 (centres unmarked) [ALB-114088] | 2.19 | 78 |  |  |
| CC(C(=O)OC(C)(C)C)c1ccc(N2Cc3ccc(Br)cc3C2=O)cc1 (centres unmarked) [ALB-112327] | 1.47 | 4210 |  |  |
| CC(C(=O)OCc1ccccc1)c1ccc(N2Cc3ccccc3C2=O)cc1 (centres unmarked) [ALB-111733] | 1.56 | 528 |  |  |
| CC(C(=O)NS(C)(=O)=O)c1ccc(N2Cc3ccccc3C2=O)cc1 (centres unmarked) [ALB-111744] | 1.14 |  |  |  |
